Results taken from PMC7324522, “Targeting a critical step in fungal hexosamine biosynthesis” (The Journal of Biological Chemistry, 2020).

Experiments:
AfGna1 [1] = molecular target: T1, AfGna1 (Aspergillus fumigatus, UniProt Q4WCU5); assay: bio-layer interferometry, biotinylated protein on SSA biosensors; format: binding
T1 construct: gene AFUA_6G02460; GST fusion (pGEX6P-1) from E. coli BL21(DE3) pLysS, GST tag cleaved with PreScission; obligate homodimer; 164-165 residues modelled; biotinylated for BLI
T1 sequence (Q4WCU5 1-190): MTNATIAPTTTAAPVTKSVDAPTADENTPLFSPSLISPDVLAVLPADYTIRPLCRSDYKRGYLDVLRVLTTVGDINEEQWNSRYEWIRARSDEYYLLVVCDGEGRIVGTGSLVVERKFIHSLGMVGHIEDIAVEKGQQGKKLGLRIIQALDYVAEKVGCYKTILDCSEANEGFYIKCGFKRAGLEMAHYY

AfGna1 [2] = molecular target: T1, AfGna1; assay: bio-layer interferometry, confirmed by isothermal titration calorimetry; format: binding; settings: read-out: equilibrium dissociation constant

`Nc1cccc(-c2nc[nH]n2)c1Cl` [compound 2, 2-chloro-3-(1,2,4-triazol-3-yl)aniline] was tested, and the Kd (AfGna1 [1]) was 0.8 µM.

With `OCCN(CCO)c1cc(Cl)c(-c2nc[nH]n2)c(Cl)c1` [compound 3, 2,2′-((3,5-dichloro-4-(1,2,4-triazol-3-yl)phenyl)azanediyl)bis(ethan-1-ol)] the Kd (AfGna1 [1]) was 5 µM.

Work on `Clc1ccccc1-c1nnc[nH]1` [compound 1, fragment hit 1] yielded a Kd (AfGna1 [2]) of 6 µM.
